According to BindingDB's records for doi:10.1021/jm00153a007 (1986):

Molecular target: Prostacyclin synthase (Sus scrofa)
Test: Inhibition of PGI-2 synthetase from porcine aorta

IC50 [µM]	Structure (SMILES)
> 100	CN(C)c1ccc2c(c1)c(Cn1ccnc1)cn2CCC(=O)O [3-(5-Dimethylamino-3-imidazol-1-ylmethyl-indol-1-yl)-propionic acid]
> 100	O=C(O)CCn1cc(Cn2ccnc2)c2cc(Br)ccc21 [3-(5-Bromo-3-imidazol-1-ylmethyl-indol-1-yl)-propionic acid]
> 100	CC(C)c1c(Cn2ccnc2)c2ccccc2n1CCC(=O)O [3-(3-Imidazol-1-ylmethyl-2-isopropyl-indol-1-yl)-propionic acid]
> 100	Cc1c(Cn2ccnc2)c2ccccc2n1/C=C/C(=O)O [3-(3-Imidazol-1-ylmethyl-2-methyl-indol-1-yl)-acrylic acid]
> 100	O=C(O)CCn1cc(Cn2ccnc2)c2cc(Cl)ccc21 [3-(5-Chloro-3-imidazol-1-ylmethyl-indol-1-yl)-propionic acid]
> 100	O=C(O)CCn1cc(Cn2ccnc2)c2ccc(C(F)(F)F)cc21 [3-(3-Imidazol-1-ylmethyl-6-trifluoromethyl-indol-1-yl)-propionic acid]
